The NIST ThermoML archive (doi:10.1021/je0601208)
± gives the expanded uncertainty stated by the source.

Columns and labels:
[1] = refractive index (Na D-line) (dimensionless); conditions: 101.33 kPa, Liquid, Standard Abbe refractometry
[2] = for mass density: 101.33 kPa, Liquid
[3] = xn = mol fraction of the nth substance listed; conditions: x2 = 0
[4] = refractive index (Na D-line) (dimensionless); xn = mol fraction of the nth substance listed; conditions: 100.5 kPa, Liquid, Standard Abbe refractometry, x2 = 0

In the case of `CCCC(=O)OCCC(C)C` [3-methylbutyl butanoate], the refractive index ([1]; 288.15 K) is reported as 1.41259 ± 0.00034, the refractive index ([1]; 298.15 K) is reported as 1.40815 ± 0.00034 and the refractive index ([1]; 308.15 K) is reported as 1.40374 ± 0.00034. For the same compound, the refractive index ([1]; 318.15 K) was 1.39927 ± 0.00034, the surface tension liquid-gas ([2]; 288.15 K) was 25.7 ± 0.6 mN/m and the surface tension liquid-gas ([2]; 298.15 K) was 24.7 ± 0.6 mN/m. It also gave a mass density ([2]; 298.15 K) of 858.69 ± 0.44 kg/m3, a surface tension liquid-gas ([2]; 308.15 K) of 24 ± 0.6 mN/m and a surface tension liquid-gas ([2]; 318.15 K) of 23.1 ± 0.6 mN/m.
`CC(=O)OCCC(C)C` [3-methylbutyl ethanoate] showed a refractive index ([1]; 288.15 K) of 1.40288 ± 0.00034, a refractive index ([1]; 298.15 K) of 1.39836 ± 0.00034 and a refractive index ([1]; 308.15 K) of 1.39365 ± 0.00034. For the same compound, the refractive index ([1]; 318.15 K) was 1.38895 ± 0.00034, the surface tension liquid-gas ([2]; 288.15 K) was 25.4 ± 0.4 mN/m and the surface tension liquid-gas ([2]; 298.15 K) was 24.3 ± 0.4 mN/m. It also gave a mass density ([2]; 298.15 K) of 867.91 ± 0.45 kg/m3, a surface tension liquid-gas ([2]; 308.15 K) of 23.4 ± 0.4 mN/m and a surface tension liquid-gas ([2]; 318.15 K) of 22.4 ± 0.4 mN/m.
`CCO` [ethanol] gave a refractive index ([1]; 288.15 K) of 1.36333 ± 0.00031, a refractive index ([1]; 298.15 K) of 1.35941 ± 0.00031 and a refractive index ([1]; 308.15 K) of 1.35531 ± 0.00031. For the same compound, the refractive index ([1]; 318.15 K) was 1.35148 ± 0.00031, the surface tension liquid-gas ([2]; 288.15 K) was 23 ± 0.4 mN/m and the surface tension liquid-gas ([2]; 298.15 K) was 22.3 ± 0.4 mN/m. For the same compound, the mass density ([2]; 298.15 K) was 785 ± 0.24 kg/m3, the surface tension liquid-gas ([2]; 308.15 K) was 21.5 ± 0.4 mN/m and the surface tension liquid-gas ([2]; 318.15 K) was 20.6 ± 0.4 mN/m.
Compound `CCO` [ethanol] + CC(=O)OCCC(C)C has a surface tension liquid-gas ([3]; 288.15 K) of 23 ± 0.4 mN/m, a surface tension liquid-gas ([3]; 298.15 K) of 22.3 ± 0.4 mN/m and a surface tension liquid-gas ([3]; 308.15 K) of 21.5 ± 0.4 mN/m. For the same compound, the surface tension liquid-gas ([3]; 318.15 K) was 20.6 ± 0.4 mN/m, the refractive index ([4]; 288.15 K) was 1.36333 ± 0.00031 and the refractive index ([4]; 298.15 K) was 1.35941 ± 0.00031. For the same compound, the refractive index ([4]; 308.15 K) was 1.35531 ± 0.00031 and the refractive index ([4]; 318.15 K) was 1.35148 ± 0.00031.
With `CCO` [ethanol] + CCCC(=O)OCCC(C)C the surface tension liquid-gas ([3]; 288.15 K) was 23 ± 0.6 mN/m, the surface tension liquid-gas ([3]; 298.15 K) was 22.3 ± 0.6 mN/m and the surface tension liquid-gas ([3]; 308.15 K) was 21.5 ± 0.6 mN/m. It also gave a surface tension liquid-gas ([3]; 318.15 K) of 20.6 ± 0.6 mN/m, a refractive index ([4]; 288.15 K) of 1.36333 ± 0.00031 and a refractive index ([4]; 298.15 K) of 1.35941 ± 0.00031. For the same compound, the refractive index ([4]; 308.15 K) was 1.35531 ± 0.00031 and the refractive index ([4]; 318.15 K) was 1.35148 ± 0.00031.
`CCO` [ethanol] + CCCCCC(=O)OCC gave a surface tension liquid-gas ([3]; 288.15 K) of 23 ± 0.6 mN/m, a surface tension liquid-gas ([3]; 298.15 K) of 22.3 ± 0.6 mN/m and a surface tension liquid-gas ([3]; 308.15 K) of 21.5 ± 0.6 mN/m. For the same compound, the surface tension liquid-gas ([3]; 318.15 K) was 20.6 ± 0.6 mN/m, the refractive index ([4]; 288.15 K) was 1.36333 ± 0.00031 and the refractive index ([4]; 298.15 K) was 1.35941 ± 0.00031. For the same compound, the refractive index ([4]; 308.15 K) was 1.35531 ± 0.00031 and the refractive index ([4]; 318.15 K) was 1.35148 ± 0.00031.
Work on `CCO` [ethanol] + CCCCCCCC(=O)OCC yielded a surface tension liquid-gas ([3]; 288.15 K) of 23 ± 0.6 mN/m, a surface tension liquid-gas ([3]; 298.15 K) of 22.3 ± 0.6 mN/m and a surface tension liquid-gas ([3]; 308.15 K) of 21.5 ± 0.6 mN/m. The surface tension liquid-gas ([3]; 318.15 K) was 20.6 ± 0.6 mN/m, the refractive index ([4]; 288.15 K) was 1.36333 ± 0.00031 and the refractive index ([4]; 298.15 K) was 1.35941 ± 0.00031. The refractive index ([4]; 308.15 K) was 1.35531 ± 0.00031 and the refractive index ([4]; 318.15 K) was 1.35148 ± 0.00031.
`CCO` [ethanol] + CCOC(=O)Cc1ccccc1 showed a surface tension liquid-gas ([3]; 288.15 K) of 23 ± 0.6 mN/m, a surface tension liquid-gas ([3]; 298.15 K) of 22.3 ± 0.6 mN/m and a surface tension liquid-gas ([3]; 308.15 K) of 21.5 ± 0.6 mN/m. For the same compound, the surface tension liquid-gas ([3]; 318.15 K) was 20.6 ± 0.6 mN/m, the refractive index ([4]; 288.15 K) was 1.36333 ± 0.00031 and the refractive index ([4]; 298.15 K) was 1.35941 ± 0.00031. For the same compound, the refractive index ([4]; 308.15 K) was 1.35531 ± 0.00031 and the refractive index ([4]; 318.15 K) was 1.35148 ± 0.00031.
With `CCO` [ethanol] + CCOC(=O)c1ccccc1 the surface tension liquid-gas ([3]; 288.15 K) was 23 ± 0.6 mN/m, the surface tension liquid-gas ([3]; 298.15 K) was 22.3 ± 0.6 mN/m and the surface tension liquid-gas ([3]; 308.15 K) was 21.5 ± 0.6 mN/m. The surface tension liquid-gas ([3]; 318.15 K) was 20.6 ± 0.6 mN/m, the refractive index ([4]; 288.15 K) was 1.36333 ± 0.00031 and the refractive index ([4]; 298.15 K) was 1.35941 ± 0.00031. It also gave a refractive index ([4]; 308.15 K) of 1.35531 ± 0.00031 and a refractive index ([4]; 318.15 K) of 1.35148 ± 0.00031.
Work on `CCOC(=O)c1ccccc1` [ethyl benzoate] yielded a refractive index ([1]; 288.15 K) of 1.5076 ± 0.00032, a refractive index ([1]; 298.15 K) of 1.50328 ± 0.00032 and a refractive index ([1]; 308.15 K) of 1.49863 ± 0.00032. The refractive index ([1]; 318.15 K) was 1.49391 ± 0.00032, the surface tension liquid-gas ([2]; 288.15 K) was 35.7 ± 0.7 mN/m and the surface tension liquid-gas ([2]; 298.15 K) was 34.6 ± 0.7 mN/m. For the same compound, the mass density ([2]; 298.15 K) was 1041.42 ± 0.14 kg/m3, the surface tension liquid-gas ([2]; 308.15 K) was 33.3 ± 0.7 mN/m and the surface tension liquid-gas ([2]; 318.15 K) was 32.5 ± 0.7 mN/m.
`CCCCCC(=O)OCC` [ethyl hexanoate] showed a refractive index ([1]; 288.15 K) of 1.4095 ± 0.00032, a refractive index ([1]; 298.15 K) of 1.40504 ± 0.00032 and a refractive index ([1]; 308.15 K) of 1.40055 ± 0.00032. The refractive index ([1]; 318.15 K) was 1.39597 ± 0.00032, the surface tension liquid-gas ([2]; 288.15 K) was 26.4 ± 0.6 mN/m and the surface tension liquid-gas ([2]; 298.15 K) was 25.4 ± 0.6 mN/m. It also gave a mass density ([2]; 298.15 K) of 866.29 ± 0.21 kg/m3, a surface tension liquid-gas ([2]; 308.15 K) of 24.5 ± 0.6 mN/m and a surface tension liquid-gas ([2]; 318.15 K) of 23.6 ± 0.6 mN/m.
`CCCCCCCC(=O)OCC` [ethyl octanoate] gave a refractive index ([1]; 288.15 K) of 1.41991 ± 0.00033, a refractive index ([1]; 298.15 K) of 1.4156 ± 0.00033 and a refractive index ([1]; 308.15 K) of 1.41137 ± 0.00033. For the same compound, the refractive index ([1]; 318.15 K) was 1.40702 ± 0.00033, the surface tension liquid-gas ([2]; 288.15 K) was 27.2 ± 0.6 mN/m and the surface tension liquid-gas ([2]; 298.15 K) was 26.4 ± 0.6 mN/m. It also gave a mass density ([2]; 298.15 K) of 862.15 ± 0.41 kg/m3, a surface tension liquid-gas ([2]; 308.15 K) of 25.5 ± 0.6 mN/m and a surface tension liquid-gas ([2]; 318.15 K) of 24.7 ± 0.6 mN/m.
`CCOC(=O)Cc1ccccc1` [ethyl phenylacetate] gave a refractive index ([1]; 288.15 K) of 1.49971 ± 0.00034, a refractive index ([1]; 298.15 K) of 1.49513 ± 0.00034 and a refractive index ([1]; 308.15 K) of 1.49063 ± 0.00034. The refractive index ([1]; 318.15 K) was 1.48583 ± 0.00034, the surface tension liquid-gas ([2]; 288.15 K) was 35.9 ± 0.7 mN/m and the surface tension liquid-gas ([2]; 298.15 K) was 34.6 ± 0.7 mN/m. The mass density ([2]; 298.15 K) was 1026.96 ± 0.35 kg/m3, the surface tension liquid-gas ([2]; 308.15 K) was 33.5 ± 0.7 mN/m and the surface tension liquid-gas ([2]; 318.15 K) was 32.8 ± 0.7 mN/m.
